Measurements reported in US10647680B2, “Urea compound, preparation method therefor and medical use thereof” (Ancureall Pharmaceutical (Shanghai) Co., Ltd., priority 2016, dated 2020).

Key:
Format in all cases: cell-based
[1] = tested on: NCI-H460 (KRAS G61H mutant type); experiment: In vitro growth inhibition (GI50), NCI-H460; conditions: Homo sapiens
Excerpt: (§1) Tumor cell line is an effective cell model for studying the inhibition of tumor cell growth or proliferation in vitro. In the present invention, a representative tumor cell line was selected to determine the cell growth inhibition activity of the present compound. All cell lines used were from ATCC, DSMZ, and the Cell Bank of the Chinese Academy of Sciences. Cell culture conditions and methods were in accordance with the requirements of each cell line. Cells were subcultured in vitro for no more than 3 passages each time, and as required, single-clone purification and identification of cell lines could be carried out.
(§2) The cell culture media used were RPMI1640 (Gibco), MEM (Gibco), McCOY'S5A (Gibco), and IMDM (Gibco). The complete medium was prepared by supplement with 5˜20% fetal calf serum (Gibco), 1% double-antibiotics (10000 units/mL penicillin and 10000 units/mL), 2 mM glutamine or 1 mM sodium pyruvate, respectively.
Human large cell lung cancer cell NCI-H460 (KRAS […] mutant type, ATCC), human non-small cell lung cancer cell line H1299 (NRAS Q61K mutant type, ATCC), human melanoma cell line A375 (BRAF V600E mutant type, Shanghai Cell Bank of Chinese Academy of Sciences), human colon cancer cell line HCT116 (KRAS G13D mutant type, Shanghai Cell Bank, Chinese Academy of Sciences) were cultured in a complete medium of 1×RPMI1640 (10% FBS), respectively. Human non-small cell lung cancer cells A549 (KRAS G12S mutant type, Shanghai Cell Bank, Chinese Academy of Sciences) were cultured in a complete medium of 1× Ham's supplemented with 10% FBS, 1% double antibody, and 2 mM glutamine.
(§3) Adherent cells were digested with 0.25% pancreatin-EDTA (Gibco). The suspension cells were collected by centrifugation. The supernatant was discarded and the cell pellet was resuspended and counted. Different cell concentrations (5˜10×10^4 cells/mL) were prepared according to the growth cycle of each cell line and then seeded on a 96-well plate (Corning), 100 μL/well. The cells were incubated overnight at 37° C., 5% CO2. The compounds were added to the cells on the second day with 2 wells in parallel. The final concentration of organic solvent shall not exceed 1%. The cells were continually incubated for 3 to 5 days, and then subjected to MTT assay.
(§4) The compound of the present invention and the control compound were dissolved in DMSO (Sigma) respectively, with the purity of more than 98%. The compound was stored in a concentration of 10 mM at −20° C. and diluted to 2- or 10-fold series prior to use.
(§5) Dojindo CCK8 reagent kit was used as MTT assay. THERMO […] FC meter was used as microplate reader.
(§6) For adherent cells, culture medium was removed and immediately replaced with the fresh prepared medium which contains 10% CCK8 reagent (100 μL/well). For the suspension cells, CCK8 was directly added to 10% of the final concentration. The cells were continually incubated for 1˜4 h. When a dark yellow color could be observed in the solvent control wells, the absorbance value at OD450 nm was measured and the cell growth rate was calculated according to the following formula: Cell Growth Rate (%)=100*(T−T0)/(C−T0) T=optical density of drug treatment cell well—optical density of blank control well; T0=optical density of cell well before drug treatment—optical density of blank control well; C=optical density of cell well of solvent control group—optical density of blank control well. The concentration value of 50% inhibition of cell growth (GI50) was calculated according to the drug concentration and cell growth rate curve. The experiment was independently repeated 1˜3 times, and subject to biological statistical analysis. 4. Experimental Results
Tumor cell growth inhibition test was performed by selecting representative compounds (compounds 4, 11, 12, 16, 27, 68, 71, 77, 79, 89 and 116 of the present invention). The initial concentration of the compound was 5,000 nM, then it was serially diluted by 2-fold or 10-fold to 0.01 nM. […]

MKN-45 (c-MET amp) = experiment: In vitro growth inhibition (GI50), MKN-45; conditions: Homo sapiens; MKN-45, cMET Amp+
Excerpt: as §1, §2
The human gastric cancer cell line MKN-45 (c-MET amp, ATCC) and the non-small cell lung cancer cell line NCI-H1993 (c-MET amp, ATCC) were cultured in complete medium comprising 1×RPMI1640 and 10% FBS, respectively.
as §3, §4, §5, §6
(§7) Tumor cell growth inhibition test was performed by selecting representative compounds (compounds 4, 11, 12, 16, 27, 68, 71, 77, 79, 89 and 116 of the present invention). The initial concentration of the compound was 5,000 nM, then it was serially diluted by 2-fold or 10-fold to 0.01 nM. The GI50 value of each test compound was calculated according to the GI50 assay and calculation method. The experiments were repeated 1 to 3 times, and data were subjected to biological statistical analysis.

[2] = tested on: Karpas-299 (expressing NPM-ALK fusion gene); experiment: In vitro growth inhibition (GI50), Karpas-299; conditions: Homo sapiens; Karpas-299, NPM-ALK
Excerpt: as §1, §2
Human non-small cell lung cancer cell line NCI-H2228 (expressing EML4-ALK fusion gene, ATCC) and human anaplastic large cell lymphoma cell line Karpas-299 (expressing NPM-ALK fusion gene, ATCC) were cultured in complete medium comprising 1×RPMI1640 (10% FBS), respectively. Neuroblastoma cell line SH-SY5Y (expressing ALK F1174L mutant protein, Shanghai Cell Bank, Chinese Academy of Sciences) was cultured in MEM complete medium (1×MEM, 10% FBS, 1% NEAA, 1 mM sodium pyruvate).
as §3, §4, §5, §6, §7

CC(C)(C)c1cc(NC(=O)Nc2ccc(-n3cnc4cc(O)ccc43)cc2)no1 [Compound 4, 1-(5-tert-butyl-isoxazol-3-yl)-3-[4-(5-hydroxy-benzimidazol-1-yl)-phenyl]-urea]
GI50 [1]: > 2500 nM
GI50 (MKN-45 (c-MET amp)): > 2500 nM

CC(C)(C)c1cc(NC(=O)Nc2ccc(-n3cnc4cc(OCCO)ccc43)cc2)no1 [Compound 11, 1-(5-tert-butyl-isoxazol-3-yl)-3-{4-[5-(2-hydroxy-ethoxyl)-benzimidazol-1-yl]-phenyl]-urea]
GI50 [1]: > 2500 nM
GI50 (MKN-45 (c-MET amp)): > 2500 nM

CC(C)(C)c1cc(NC(=O)Nc2ccc(-n3cnc4cc(OCCN5CCOCC5)ccc43)cc2)no1 [Compound 16, 1-(5-tert-butyl-isoxazol-3-yl)-3-{4-[5-(2-morpholin-4-yl-ethoxyl)-benzimidazol-1-yl]-phenyl}-urea]
GI50 [1]: > 2500 nM
GI50 (MKN-45 (c-MET amp)): > 2500 nM
GI50 [2]: > 2500 nM

CC(C)(C)c1cc(NC(=O)Nc2ccc(-n3cnc4ccc(OCCN5CCOCC5)cc43)cc2)no1 [Compound 27, 1-(5-tert-butyl-isoxazol-3-yl)-3-{4-[6-(2morpholin-4-yl-ethoxyl)-benzimidazol-1-yl]-phenyl}-urea]
GI50 [1]: > 2500 nM
GI50 (MKN-45 (c-MET amp)): > 2500 nM

CC(C)(C)c1cc(NC(=O)Nc2ccc(-n3cnc4ccccc43)cc2)[nH]n1 [Compound 68, 1-(4-benzimidazol-1-yl-phenyl)-3-(5-tert-butyl-2H-pyrazol-3-yl)-urea]
GI50 [1]: > 2500 nM
GI50 (MKN-45 (c-MET amp)): > 2500 nM
GI50 [2]: 1880 nM

COc1ccc2c(c1)ncn2-c1ccc(NC(=O)Nc2cc(C(C)(C)C)n[nH]2)cc1 [Compound 71, 1-(5-tert-butyl-2H-pyrazol-3-yl)-3-[4-(5-methoxyl-benzimidazol-1-yl)-phenyl]-urea]
GI50 [1]: > 2500 nM
GI50 (MKN-45 (c-MET amp)): > 2500 nM
GI50 [2]: > 2500 nM

COCCOc1ccc2c(c1)ncn2-c1ccc(NC(=O)Nc2cc(C(C)(C)C)n[nH]2)cc1 [Compound 77, 1-(5-tert-butyl-2H-pyrazol-3-yl)-3-{4-[5-(2-methoxyl-ethoxyl)-benzimidazol-1-yl]-phenyl}-urea]
GI50 [1]: > 2500 nM
GI50 (MKN-45 (c-MET amp)): > 2500 nM
GI50 [2]: > 2500 nM

CC(C)(C)c1cc(NC(=O)Nc2ccc(-n3cnc4cc(OCCO)ccc43)cc2)[nH]n1 [Compound 79, 1-(5-tert-butyl-2H-pyrazol-3-yl)-3-{4-[5-(2-hydroxy-ethoxyl)-benzimidazol-1-yl]-phenyl]urea]
GI50 [1]: > 2500 nM
GI50 (MKN-45 (c-MET amp)): > 2500 nM
GI50 [2]: > 2500 nM

CC(C)(C)c1cc(NC(=O)Nc2ccc(-n3cnc4cc(OCCN5CCOCC5)ccc43)cc2)[nH]n1 [Compound 89, 1-(5-tert-butyl-2H-pyrazol-3-yl)-3-{4-[5-(2-morpholin-4-yl-ethoxyl)-benzimidazol-1-yl]-phenyl}-urea]
GI50 [1]: > 2500 nM
GI50 (MKN-45 (c-MET amp)): > 2500 nM
GI50 [2]: > 2500 nM

CC(C)(C)c1cc(N)n(C(=O)Nc2ccc(-n3cnc4ccccc43)cc2)n1 [Compound 116, 5-amino-3-tert-butyl-pyrazol-1-carboxylic acid (4-benzimidazol-1-yl-phenyl)-amide]
GI50 [1]: > 2500 nM
GI50 (MKN-45 (c-MET amp)): > 2500 nM
GI50 [2]: > 2500 nM
